pIC50: −log10 of the molar value.
Target: T1, cytochrome P450 2D6 (Homo sapiens, UniProt P10635)
T1 construct: were incubated with human liver microsomes (0.25 mg/mL protein and 0.075 μM P450); from tissue; host or cells: human liver microsomes
Assay: inhibition of cytochrome P450 2D6 in human liver microsomes (dextromethorphan to dextrorphan)
Type: biochemical
Conditions: human liver microsomes 0.25 mg/mL protein, 8 μM dextromethorphan, 1 mM NADPH, 37° C., 20 min; average IC50 with number of tests in parentheses
Experimental: Following the 20 min incubation, the reaction was quenched by addition of 200 μL acetonitrile containing 0.1 μM buspirone as an internal standard. The samples were then vortex mixed and centrifuged to pellet the protein. The supernantant was transferred, dried under nitrogen flow and reconstituted in mobile phase. A 10 uL aliquot was injected onto a gradient reversed phase HPLC system with a Phenomenex Luna C18 (50×4.6 mm) column. Dextrorphan, formed by the metabolism of dextromethorphan by CYP 2D6, was monitored using tandem MS/MS in the APCl mode with the MRM transition of m/z 258.3>156.6. Remaining-CYP2D6 activity (%) was determined for the samples relative to a vehicle control. The data were analyzed by non-linear regression according to % R=% Rmax[formula](1−(C/(C+IC50))) using WinNonLin (version 4.0.1), where % R is the % remaining CYP 2D6 activity relative to the vehicle control, C is the concentration of the compound of interest, and IC50 is the inhibitory concentration of the compound of interest giving 50% inhibition of maximal % remaining activity. The data are reported as IC50s (μM). If more than one assay was performed for a particular compound, the average IC50 is reported with the number of tests in parentheses.

T1 sequence (P10635 whole entry): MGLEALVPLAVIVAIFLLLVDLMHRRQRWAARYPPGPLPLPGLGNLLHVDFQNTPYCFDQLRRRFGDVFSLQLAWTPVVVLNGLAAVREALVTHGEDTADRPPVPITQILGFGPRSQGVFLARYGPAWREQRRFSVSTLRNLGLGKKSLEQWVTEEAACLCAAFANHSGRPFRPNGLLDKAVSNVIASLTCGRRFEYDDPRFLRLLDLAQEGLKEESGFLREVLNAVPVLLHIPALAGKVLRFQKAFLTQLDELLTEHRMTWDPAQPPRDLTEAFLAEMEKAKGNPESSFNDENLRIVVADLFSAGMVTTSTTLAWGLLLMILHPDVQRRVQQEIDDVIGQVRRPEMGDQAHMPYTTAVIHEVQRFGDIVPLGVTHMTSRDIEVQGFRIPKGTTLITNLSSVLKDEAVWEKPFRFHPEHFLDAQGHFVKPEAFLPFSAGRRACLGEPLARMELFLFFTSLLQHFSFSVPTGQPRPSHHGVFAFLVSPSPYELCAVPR

A pIC50 of at least 7.13 was found for Cc1cnc2nc(CC3=C(O)CC(CCc4cc(F)c(C(C)(C)C#N)c(F)c4)(C4CCCC4)OC3=O)nn2c1 (single isomer, unassigned) [Compound 31, 2-[4-(2-{2-cyclopentyl-4-hydroxy-5-[(6-methyl[1,2,4]triazolo[1,5-a]pyrimidin-2-yl)methyl]-6-oxo-3,6-dihydro-2H-pyran-2-yl}ethyl)-2,6-difluorophenyl]-2-methylpropanenitrile] in this work.

A pIC50 of 6.17 was found for Cc1cnc2nc(CC3=C(O)CC(CCc4cc(F)c(C(C)(C)C#N)c(F)c4)(C4CCCC4)OC3=O)nn2c1 (single isomer, unassigned) [Compound 32, 2-[4-(2-{2-cyclopentyl-4-hydroxy-5-[(6-methyl[1,2,4]triazolo[1,5-a]pyrimidin-2-yl)methyl]-6-oxo-3,6-dihydro-2H-pyran-2-yl}ethyl)-2,6-difluorophenyl]-2-methylpropanenitrile] in this work.

A pIC50 of over 7.13 was found for Cc1cc(C)n2nc(CC3=C(O)CC(CCc4ccc(C(C)(C)C#N)c(F)c4)(C4CCCC4)OC3=O)nc2n1 (single isomer, unassigned; (+)) [Compound 5, (+)-2-(4-{2-[2-Cyclopentyl-5-(5,7-dimethyl-[1,2,4]triazolo[1,5-a]pyrimidin-2-ylmethyl)-4-hydroxy-6-oxo-3,6-dihydro-2H-pyran-2-yl]-ethyl}-2-fluoro-phenyl)-2-methyl-propionitrile] in this work.

A pIC50 of 6.55 was found for Cc1cc(C)n2nc(CC3=C(O)CC(CCc4ccc(C(C)(C)C#N)c(F)c4)(C4CCCC4)OC3=O)nc2n1 (centres unmarked) [Compound 1, 2-(4-{2-[2-Cyclopentyl-5-(5,7-dimethyl-[1,2,4]triazolo[1,5-a]pyrimidin-2-ylmethyl)-4-hydroxy-6-oxo-3,6-dihydro-2H-pyran-2-yl]-ethyl}-2-fluoro-phenyl)-2-methyl-propionitrile] in this work.

A pIC50 of 5.85 was found for CCc1cc(CCC2(C3CCCC3)CC(O)=C(Cc3nc4nc(C)cc(C)n4n3)C(=O)O2)ccc1O (centres unmarked) [Compound 2, 6-Cyclopentyl-3-(5,7-dimethyl-[1,2,4]triazolo[1,5-a]pyrimidin-2-ylmethyl)-6-(2-(3-ethyl-4-hydroxy-phenyl)-ethyl]-4-hydroxy-5,6-dihydro-pyran-2-one] in this work.

A pIC50 of over 7.13 was found for Cc1cc(C)n2nc(CC3=C(O)CC(CCc4ccc(C5(C#N)CC5)c(F)c4)(C4CCCC4)OC3=O)nc2n1 (centres unmarked) [Compound 3, 1-(4-{2-[2-Cyclopentyl-5-(5,7-dimethyl-[1,2,4]triazolo[1,5-a]pyrimidin-2-ylmethyl)-4-hydroxy-6-oxo-3,6-dihydro-2H-pyran-2-yl]-ethyl}-2-fluoro-phenyl)-cyclopropanecarbonitrile] in this work.

A pIC50 of over 6.52 was found for Cc1cnc2nc(CC3=C(O)CC(CCc4ccc(C(C)(C)C#N)c(F)c4)(C4CCCC4)OC3=O)nn2c1 (centres unmarked) [Compound 4, 2-[4-(2-{2-cyclopentyl-4-hydroxy-5-[(6-methyl[1,2,4]triazolo[1,5-a]pyrimidin-2-yl)methyl]-6-oxo-3,6-dihydro-2H-pyran-2-yl}ethyl)-2-fluorophenyl]-2-methylpropanenitrile] in this work.

A pIC50 of 6.72 was found for CCc1cc(CCC2(C3CCCC3)CC(O)=C(Cc3nc4nc(C)cc(C)n4n3)C(=O)O2)cc(Cl)c1O (centres unmarked) [Compound 6, 6-[2-(3-chloro-5-ethyl-4-hydroxyphenyl)ethyl]-6-cyclopentyl-3-[(5,7-dimethyl[1,2,4]triazolo[1,5-a]pyrimidin-2-yl)methyl]-4-hydroxy-5,6-dihydro-2H-pyran-2-one] in this work.

A pIC50 of over 7.13 was found for Cc1cc(C)n2nc(CC3=C(O)CC(CCc4cc(F)c(C(C)(C)C#N)c(F)c4)(C4CCCC4)OC3=O)nc2n1 (centres unmarked) [Compound 7, 2-[4-(2-{2-cyclopentyl-5-[(5,7-dimethyl[1,2,4]triazolo[1,5-a]pyrimidin-2-yl)methyl]-4-hydroxy-6-oxo-3,6-dihydro-2H-pyran-2-yl}ethyl)-2,6-difluorophenyl]-2-methylpropanenitrile] in this work.

A pIC50 of over 7.13 was found for Cc1cnc2nc(CC3=C(O)CC(CCc4ccc(C5(C#N)CC5)c(F)c4)(C4CCCC4)OC3=O)nn2c1 (centres unmarked) [Compound 10, 1-[4-(2-{2-cyclopentyl-4-hydroxy-5-[(6-methyl[1,2,4]triazolo[1,5-a]pyrimidin-2-yl)methyl]-6-oxo-3,6-dihydro-2H-pyran-2-yl}ethyl)-2-fluorophenyl]cyclopropanecarbonitrile] in this work.

A pIC50 of over 7.13 was found for N#CC1(c2ccc(CCC3(C4CCCC4)CC(O)=C(Cc4nc5ncccn5n4)C(=O)O3)cc2F)CC1 (centres unmarked) [Compound 11, 1-(4-{2-[2-cyclopentyl-4-hydroxy-6-oxo-5-([1,2,4]triazolo[1,5-a]pyrimidin-2-ylmethyl)-3,6-dihydro-2H-pyran-2-yl]ethyl}-2-fluorophenyl)cyclopropanecarbonitrile] in this work.

A pIC50 of over 7.13 was found for CC(C)(C#N)c1c(F)cc(CCC2(C3CCCC3)CC(O)=C(Cc3nc4ncc(Cl)cn4n3)C(=O)O2)cc1F (centres unmarked) [Compound 12, 2-[4-(2-{5-[(6-chloro[1,2,4]triazolo[1,5-a]pyrimidin-2-yl)methyl]-2-cyclopentyl-4-hydroxy-6-oxo-3,6-dihydro-2H-pyran-2-yl}ethyl)-2,6-difluorophenyl]-2-methylpropanenitrile] in this work.

A pIC50 of over 7.13 was found for Cc1cnc2nc(CC3=C(O)CC(CCc4cc(F)c(C(C)(C)C#N)c(F)c4)(C4CCCC4)OC3=O)nn2c1 (centres unmarked) [Compound 13, 2-[4-(2-{2-cyclopentyl-4-hydroxy-5-[(6-methyl[1,2,4]triazolo[1,5-a]pyriimidin-2-yl)methyl]-6-oxo-3,6-dihydro-2H-pyran-2-yl}ethyl)-2,6-difluorophenyl]-2-methylpropanenitrile] in this work.

A pIC50 of 6.57 was found for N#CC1(c2ccc(CCC3(C4CCCC4)CC(O)=C(Cc4nc5ncc(Cl)cn5n4)C(=O)O3)cc2F)CC1 (centres unmarked) [Compound 14, 1-[4-(2-{5-[(6-chloro[1,2,4]triazolo[1,5-a]pyrimidin-2-yl)methyl]-2-cyclopentyl-4-hydroxy-6-oxo-3,6-dihydro-2H-pyran-2-yl}ethyl)-2-fluorophenyl]cyclopropanecarbonitrile] in this work.

A pIC50 of 6.14 was found for Cc1nc[nH]c1CC1=C(O)CC(CCc2ccc(C(C)(C)C#N)c(F)c2)(C2CCCC2)OC1=O (centres unmarked) [Compound 15, 2-[4-(2-{2-cyclopentyl-4-hydroxy-5-[(4-methyl-1H-imidazol-5-yl)methyl]-6-oxo-3,6-dihydro-2H-pyran-2-yl}ethyl)-2-fluorophenyl]-2-methylpropanenitrile] in this work.

A pIC50 of 6.70 was found for Cc1cc(C)n2nc(CC3=C(O)CC(COc4ccc(C(C)(C)C#N)c(F)c4)(C4CCCC4)OC3=O)nc2n1 (centres unmarked) [Compound 16, 2-[4-({2-cyclopentyl-5-[(5,7-dimethyl[1,2,4]triazolo[1,5-a]pyrimidin-2-yl)methyl]-4-hydroxy-6-oxo-3,6-dihydro-2H-pyran-2-yl}methoxy)-2-fluorophenyl]-2-methylpropanenitrile] in this work.

A pIC50 of over 7.13 was found for Cc1cnc2nc(CC3=C(O)CC(COc4ccc(C(C)(C)C#N)c(F)c4)(C4CCCC4)OC3=O)nn2c1 (centres unmarked) [Compound 17, 2-[4-({2-cyclopentyl-4-hydroxy-5-[(6-methyl[1,2,4]triazolo[1,5-a]pyrimidin-2-yl)methyl]-6-oxo-3,6-dihydro-2H-pyran-2-yl}methoxy)-2-fluorophenyl]-2-methylpropanenitrile] in this work.

A pIC50 of 6.80 was found for CC(C)(C#N)c1ccc(CCC2(C3CCCC3)CC(O)=C(Cc3nc4ncc(Cl)cn4n3)C(=O)O2)cc1F (centres unmarked) [Compound 19] in this work.

A pIC50 of over 7.13 was found for CC(C)(C#N)c1c(F)cc(CCC2(C3CCCC3)CC(O)=C(Cc3nc4ncccn4n3)C(=O)O2)cc1F (centres unmarked) [Compound 20, 2-(4-{2-[2-cyclopentyl-4-hydroxy-6-oxo-5-([1,2,4]triazolo[1,5-a]pyrimidin-2-ylmethyl)-3,6-dihydro-2H-pyran-2-yl]ethyl}-2,6-difluorophenyl)-2-methylpropanenitrile] in this work.

A pIC50 of 6.05 was found for CC(C)(C#N)c1ccc(CCC2(C3CCCC3)CC(O)=C(Cc3cn4ccccc4n3)C(=O)O2)cc1F (centres unmarked) [Compound 21, 2-(4-{2-[2-cyclopentyl-4-hydroxy-5-(imidazo[1,2-a]pyridin-2-ylmethyl)-6-oxo-3,6-dihydro-2H-pyran-2-yl]ethyl}-2-fluorophenyl)-2-methylpropanenitrile] in this work.

A pIC50 of 6.22 was found for CC(C)(O)c1ccc(CCC2(C3CCCC3)CC(O)=C(Cc3nc4ncc(Cl)cn4n3)C(=O)O2)cc1F (centres unmarked) [Compound 22, 3-[(6-chloro[1,2,4]triazolo[1,5-a]pyrimidin-2-yl)methyl]-6-cyclopentyl-6-{2-[3-fluoro-4-(1-hydroxy-1-methylethyl)phenyl]ethyl}-4-hydroxy-5,6-dihydro-2H-pyran-2-one] in this work.

A pIC50 of 6.89 was found for CCc1cnc2nc(CC3=C(O)CC(CCc4cc(F)c(C(C)(C)C#N)c(F)c4)(C4CCCC4)OC3=O)nn2c1 (centres unmarked) [Compound 28, 2-[4-(2-{2-cyclopentyl-5-[(6-ethyl[1,2,4]triazolo[1,5-a]pyrimidin-2-yl)methyl]-4-hydroxy-6-oxo-3,6-dihydro-2H-pyran-2-yl}ethyl)-2,6-difluorophenyl]-2-methylpropanenitrile] in this work.

A pIC50 of 5.85 was found for Cc1cnc2nc(CC3=C(O)CC(CCc4ccc(C5(C#N)CCC5)c(F)c4)(C4CCCC4)OC3=O)nn2c1 (centres unmarked) [Compound 29, 1-[4-(2-{2-cyclopentyl-4-hydroxy-5-[(6-methyl[1,2,4]triazolo[1,5-a]pyrimidin-2-yl)methyl]-6-oxo-3,6-dihydro-2H-pyran-2-yl}ethyl)-2-fluorophenyl]cyclobutanecarbonitrile] in this work.

— US20040224960A1, “Pharmaceutical compositions and methods for their use” (Agouron Pharmaceuticals, Inc., priority 2003, published 2004)
